Assay results reported in patent publication US10206937B2, “Boronic acid derivatives and therapeutic uses thereof” (Qpex Biopharma, Inc., priority 2014, dated 2019).

Tested on: strains of Enterobacteriaceae producing various carbapenemases (class A, D and B; 169 strains)
Assay: Meropenem or tebipenem potentiation by Compounds 97 or 62 (MIC)
Type: cell-based
Description: The largest panel of clinical isolates expressing class A, D and B carbapenemases alone or in combination with other beta-lactamases (169 strains) was used to evaluate carbapenem potentiation activity of Compounds 97 and 62. MIC for meropenem and tebipenem of these strains were determined either alone or in the presence of Compounds 97 or 62, respectively, at a fixed concentration of 8 μg/ml in the growth media.

Measured: Tebipenem MIC alone (T)

C[C@@H](O)[C@H]1C(=O)N2C(C(=O)O)=C(SC3CN(C4=NCCS4)C3)[C@H](C)[C@H]12 [T]
Z (MIC of greater than 10 μg/mL): CF1023 Citrobacter freundii SHV-12(2be), TEM-OSBL(2b), CTX-M-3, CMY-34, NDM-1 | EC1061 Escherichia coli NDM-1, CMY-6 | EC1069 Escherichia coli CTX-M-27, NDM-1 | EC1070 Escherichia coli TEM-OSBL(2b), CMY-42, NDM-5 | EC1072 Escherichia coli CTX-M-3, NDM-1 | ECL1055 Enterobacter cloacae KPC-3, TEM | ECL1057 Enterobacter cloacae NDM-1, TEM-1, CTX-M-15 | ECL1084 Enterobacter cloacae CTX-M-15, ACT-16, NDM-1 | ECL1085 Enterobacter cloacae SHV-31(2be), TEM-1(2b), CTX-M-15, NDM-1 | ECL1094 Enterobacter cloacae VIM-1 | ECL1095 Enterobacter cloacae SHV-12(2be), TEM-OSBL(2b), CMY-4, ACT-16, VIM-4, OXA-48(c) | ECL1096 Enterobacter cloacae CMY-4, VIM-4, OXA-48(c) | ECL1097 Enterobacter cloacae SHV-31(2be), TEM-OSBL(2b), CTX-M-15, ACT-31, NDM-1 | ECL1098 Enterobacter cloacae TEM-OSBL(2b), DHA-1, ACT-16, NDM-1 | KP1054 Klebsiella pneumoniae VIM-1, SHV-11 | KP1059 Klebsiella pneumoniae VIM-1, SHV-11 | KP1061 Klebsiella pneumoniae KPC-3, TEM-1, SHV-11 | KP1064 Klebsiella pneumoniae KPC-2, TEM-1, SHV-11 | KP1070 Klebsiella pneumoniae KPC-2, SHV-11, TEM-1 | KP1074 Klebsiella pneumoniae KPC-3, SHV-11, TEM | KP1081 Klebsiella pneumoniae NDM-1, TEM-1, SHV-11, CMY-6, CTX-M-15 | KP1158 Klebsiella pneumoniae KPC-2, VIM-1 | KP1161 Klebsiella pneumoniae NDM-1 | KP1162 Klebsiella pneumoniae SHV-1(2b), CTX-M-15, IMP-4 | KP1163 Klebsiella pneumoniae SHV-11(2b), MOX-1, KPC-2, VIM-1 | KP1164 Klebsiella pneumoniae SHV-12(2be), VIM-1 | KP1165 Klebsiella pneumoniae SHV-11(2b), CTX-M-15, VIM-27 | KP1166 Klebsiella pneumoniae SHV-5(2be), VIM-26 | KP1168 Klebsiella pneumoniae SHV-11(2b), CTX-M-15, VIM-27 | KP1170 Klebsiella pneumoniae SHV-11(2b), CTX-M-15, NDM-1 | KP1175 Klebsiella pneumoniae SHV-OSBL(2b), VIM-1 | KP1176 Klebsiella pneumoniae SHV-12(2be), TEM-OSBL(2b), CMY-13, KPC-2, VIM-1 | KP1177 Klebsiella pneumoniae SHV-OSBL(2b), TEM-OSBL(2b), CTX-M-15, NDM-1 | KP1178 Klebsiella pneumoniae SHV-OSBL(2b), TEM-OSBL(2b), CTX-M-15, NDM-1 | KP1179 Klebsiella pneumoniae SHV-12(2be), TEM-OSBL(2b), CTX-M-15, NDM-7 | KP1182 Klebsiella pneumoniae SHV-OSBL(2b), NDM-1, OXA-232(c) | KP1183 Klebsiella pneumoniae SHV-OSBL(2b), TEM-OSBL(2b), CTX-M-15, NDM-1 | KP1185 Klebsiella pneumoniae SHV-OSBL(2b), TEM-OSBL(2b), IMP-4 | KP1186 Klebsiella pneumoniae CTX-M-15, NDM-1 | KP1187 Klebsiella pneumoniae SHV-55(2be), TEM-OSBL(2b), CTX-M-15, NDM-1 | KP1188 Klebsiella pneumoniae SHV-OSBL(2b), CTX-M-15, NDM-1 | KP1189 Klebsiella pneumoniae TEM-OSBL(2b), CTX-M-15, CTX-M-27, NDM-1 | KP1190 Klebsiella pneumoniae KPC-4 VIM-4 TEM SHV | KP1191 Klebsiella pneumoniae KPC-2 | KP1192 Klebsiella pneumoniae KPC-2 TEM SHV | KP1193 Klebsiella pneumoniae KPC-3 TEM SHV | KP1194 Klebsiella pneumoniae KPC TEM SHV | KP1195 Klebsiella pneumoniae KPC TEM CTX-M-15 | KP1196 Klebsiella pneumoniae KPC TEM SHV CTX-M-15 CMY | KP1197 Klebsiella pneumoniae KPC-3, VIM-1 TEM SHV | KP1198 Klebsiella pneumoniae KPC-3, VIM-1 TEM SHV | KP1199 Klebsiella pneumoniae KPC-3 TEM SHV | KP1200 Klebsiella pneumoniae KPC-3 TEM SHV | KP1210 Klebsiella pneumoniae KPC SHV TEM | KP1211 Klebsiella pneumoniae KPC SHV TEM CTX-M-15 | KP1212 Klebsiella pneumoniae KPC SHV TEM CTX-M-15 | KP1213 Klebsiella pneumoniae KPC SHV TEM CTX-M-15 | KP1214 Klebsiella pneumoniae KPC SHV TEM + 1.9 kb | KP1215 Klebsiella pneumoniae KPC SHV | KP1216 Klebsiella pneumoniae KPC SHV TEM + 1.9 kb | KP1217 Klebsiella pneumoniae KPC SHV TEM + 1.9 kb | KP1218 Klebsiella pneumoniae KPC SHV TEM + 1.9 kb | KP1219 Klebsiella pneumoniae KPC SHV TEM + 1.9 kb | KP1220 Klebsiella pneumoniae KPC SHV TEM + 1.9 kb | KP1221 Klebsiella pneumoniae KPC SHV TEM + 1.9 kb | KP1222 Klebsiella pneumoniae KPC SHV TEM IMP | KP1223 Klebsiella pneumoniae KPC SHV TEM | KP1224 Klebsiella pneumoniae KPC SHV TEM | KP1225 Klebsiella pneumoniae KPC SHV TEM + 1.9 kb CMY | KP1226 Klebsiella pneumoniae KPC SHV TEM + 1.9 kb | KP1227 Klebsiella pneumoniae KPC SHV TEM CTX-M-15 | KP1229 Klebsiella pneumoniae OXA-48 TEM SHV CTX-M-15 | KP1232 Klebsiella pneumoniae OXA-48 TEM SHV CTX-M-15 | KP1234 Klebsiella pneumoniae OXA-48 TEM SHV CTX-M-15 | KP1236 Klebsiella pneumoniae OXA-48 TEM SHV CTX-M-15 | PM1024 Proteus mirabilis TEM-1(2b), CMY-16, VIM-1 | PM1027 Proteus mirabilis VIM-5 | SM1023 Serratia marcescens VIM-4
Y (MIC of 1 μg/mL to 10 μg/mL): CF1022 Citrobacter freundii SHV-12(2be), TEM-OSBL(2b), IMP-8 | ECL1045 Enterobacter cloacae VIM-1 | ECL1087 Enterobacter cloacae VIM-1 | ECL1090 Enterobacter cloacae TEM-1(2b), CTX-M-22, ACT-type, IMP-8 | ECL1092 Enterobacter cloacae TEM-OSBL(2b), ACT-32, VIM-1 | ECL1093 Enterobacter cloacae TEM-OSBL(2b), ACT-32, VIM-1 | KP1065 Klebsiella pneumoniae VIM-1, SHV-11 | KP1159 Klebsiella pneumoniae SHV-1(2b), CTX-M-15, IMP-4 | KP1160 Klebsiella pneumoniae SHV-28(2be), CTX-M-15, IMP-26 | KP1169 Klebsiella pneumoniae SHV-11(2b), VIM-1 | KP1172 Klebsiella pneumoniae SHV-31(2be), DHA-1, VIM-1 | KP1173 Klebsiella pneumoniae TEM-33(2br), CTX-M-15, IMP-1 | KP1174 Klebsiella pneumoniae CTX-M-14, IMP-1 | KP1180 Klebsiella pneumoniae SHV-OSBL(2b), TEM-OSBL(2b), CTX-M-15, DHA-1, IMP-26 | KP1181 Klebsiella pneumoniae SHV-OSBL(2b), CTX-M-15, IMP-26 | KP1184 Klebsiella pneumoniae SHV-OSBL(2b), IMP-1 | KP1228 Klebsiella pneumoniae OXA-48 TEM SHV CTX-M-15 | KP1230 Klebsiella pneumoniae OXA-48 TEM SHV CTX-M-15 | KP1231 Klebsiella pneumoniae OXA-48 TEM SHV CTX-M-15 | PM1025 Proteus mirabilis SHV-5(2be), TEM-OSBL(2b), VEB-2, VIM-1 | PM1026 Proteus mirabilis DHA-1, IMP-26 | SM1024 Serratia marcescens TEM-1(2b), IMP-47
